# Compound: CC1CC(=O)N(C2=CN=C(N=C2N1C3CCCC3)NC4=C(C=C(C=C4)C(=O)NC5CCN(CC5)C)OC)C [NPK76-II-72-1] + CC(=O)Nc1cccc(-n2c(=O)n(C3CC3)c(=O)c3c(Nc4ccc(I)cc4F)n(C)c(=O)c(C)c32)c1 [Trametinib] (partner 0.02 µM)
# Experiment: relative viability (nuclei count vs DMSO), 5 days (fraction); higher = more cells survive
# Settings: first compound 0.1 µM
# Procedure, shortened: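 Relative viability is defined as nuclei in treated wells over nuclei in vehicle wells. Duplicate plates were run and medians reported. Lung cancer cell lines in 1536-well plates were dosed by pin tool one day after seeding, with one drug or with a fixed anchor-drug dose plus five library-drug doses (not always all listed) in √10 steps, and nuclei were counted after 5 days.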
row,Cell Line,relative viability
1,LK-2,0.584
2,NCI-H2087,0.201
3,NCI-H2342,0.909
4,SK-MES-1,0.489
5,H3255,0.637
6,COR-L23,0.671
7,COR-L 105,0.491
8,LOU-NH91,0.777
9,ChaGo-K-1,0.868
10,NCI-H2170,0.93
11,SW 900,0.66
12,NCI-H1648,0.369
13,NCI-H1395,1
14,CAL-12T,0.362
15,NCI-H2228,0.538
16,NCI-H1793,0.408
17,NCI-H1944,0.423
18,NCI-H358,0.204

# Same assay, conditions: first compound 0.3162 µM
row,Cell Line,relative viability
1,NCI-H727,0.394
2,NCI-H1650,0.491
3,NCI-H1993,0.57
4,SW 1573,0.483
5,NCI-H838,0.523
6,LCLC-103H,0.709
7,NCI-H520,0.688
8,NCI-H2126,0.537
9,EMC-BAC-2,0.81
10,NCI-H2085,0.528
11,HCC-366,0.308
12,NCI-H1666,0.732
13,NCI-H596,0.82
14,LK-2,0.609
15,NCI-H2087,0.179
16,NCI-H2342,0.809
17,SK-MES-1,0.593
18,COR-L23,0.497
19,COR-L 105,0.424
20,LOU-NH91,0.739
21,ChaGo-K-1,0.897
22,NCI-H2170,0.654
23,SW 900,0.587
24,NCI-H1648,0.384
25,NCI-H1395,1.07
26,CAL-12T,0.306
27,NCI-H2228,0.285
28,NCI-H1793,0.511
29,NCI-H1944,0.351

# Same assay, conditions: first compound 1 µM
row,Cell Line,relative viability
1,NCI-H522,0.79
2,NCI-H727,0.395
3,NCI-H1650,0.585
4,NCI-H1993,0.482
5,SW 1573,0.658
6,NCI-H838,0.578
7,LCLC-103H,0.693
8,NCI-H520,0.769
9,NCI-H2126,0.598
10,EMC-BAC-2,0.952
11,NCI-H2085,0.541
12,HCC-366,0.424
13,NCI-H1666,1.05
14,NCI-H596,0.803
15,LK-2,0.69
16,NCI-H2087,0.244
17,NCI-H2342,0.461
18,SK-MES-1,0.555
19,H3255,0.587
20,COR-L23,0.65
21,COR-L 105,0.435
22,LOU-NH91,0.829
23,ChaGo-K-1,0.875
24,NCI-H2170,0.892
25,SW 900,1.11
26,NCI-H1648,0.494
27,NCI-H1395,1.06
28,CAL-12T,0.37
29,NCI-H2228,0.571
30,NCI-H1793,0.401

# From the supplement of paper PMC10307832
